Assay results reported in US20250171404A1, “PCNA INHIBITORS AND USES THEREOF” (CITY OF HOPE, priority 2022, published 2025).

Experiments:
PCNA = target: T1, PCNA (Homo sapiens, UniProt P12004); test: Thermal denaturation (thermal shift) assay; format: binding; settings: 9 μM PCNA; 10 or 30 μM compound; dose dependent
T1 construct: made in house; host or cells: E. coli Rosetta 2 (DE3)
Procedure: FIGS. 1A-1E. AOH1160 analog interactions with PCNA. FIG. 1A: Thermal shift assay: Normalized inverse derivative thermal denaturation plots of 9 μM apo-PCNA with DMSO control is depicted with a black dashed line and PCNA in the presence of 10 μM AOH1160LE is shown in light grey and 30 μM AOH1160LE in dark grey. ΔTm values are provided. FIG. 1B: As described in FIG. 1A, in the presence of 10 μM AOH1996 depicted in light grey and 30 μM AOH1996 depicted in dark grey. FIG. 1C: Four monomers (chains A-D) of PCNA are present in the asymmetric unit of the crystal. Chains A, B, and C form the homotrimer biological unit, while chain Dis orientated perpendicular to the plane of the ring, below the interface of chains B and C and it belongs to an adjacent ring. Inset: Three molecules of AOH1160LE bind in and adjacent to the PIP box cavity of each of the PCNA ring subunits. The omit map, gray mesh, is contoured to 1.56. Two PCNA monomer subunits from adjacent rings stack against each other, placing the PIP box and IDCLs of each subunit in opposing directions. FIG. 1D: The three AOH1160LE molecules are shown as stick figure representations. Two of the compounds, left and central, bind into the PIP box cavity at known PCNA-partner/compound interaction sites. […] The electrostatic surface maps are depicted with Poisson-Boltzmann electrostatic surface potentials shown in dark grey and light grey, corresponding to −10 to +10 kT/e respectively.
Targeting the PIP box and APIM binding domain of PCNA. AOH1160, a small molecule PCNA ligand, targets the cancer-distinct L126-Y133 region of PCNA (Malkas et al., 2006) and is selectively toxic to cancer cells (Gu et al., 2018). […]
Thermal denaturation assay for PCNA-AOH1996 interaction. […] Fluorescence intensity was measured within the excitation/emission ranges 470-505/540-700 nm.

H82 xenograft tumors = test: Xenograft tumor model, small-cell lung cancer; format: in vivo, mice; settings: 40 mg/kg twice daily, oral, vs vehicle
Procedure: FIGS. 4A-4H. Pharmacokinetics and anti-tumor growth activity of AOH1996 in vivo. FIG. 4A: After oral administration, the plasma concentrations of AOH1996 from three male and three female ES1^e/SCID mice at the indicated time points were averaged and graphed ±S.D. The inset contains PK parameters determined by a standard noncompartmental method. FIG. 4B: A similar PK study of AOH1996 was performed in dogs. FIGS. 4C-4E: Mice bearing the xenograft tumors of neuroblastoma (FIG. 4C: SK-N-BE(2)c), breast cancer (FIG. 4D: MDA-MB-468), and small-cell lung cancer (FIG. 4E: H82) were given vehicle only (black) or 40 mg/kg of AOH1996 (grey) twice daily immediately after the first measurement. Tumor sizes were measured by a dial caliper each week. Tumor volumes (0.4×L×W^2) were averaged and graphed ±S.E. (*, P<0.01). FIG. 4F: Animal body weight was monitored throughout the studies as an indicator of toxicity. […] FIG. 4G: The levels of phosphor-Chk1 (pChk1) and γH2A.X in SK-N-BE(2)c derived tumor samples were analyzed by IHC. […] The p values determined by the Log-rank (Mantel-Cox) test between combination treatment and each of the control groups are p=0.0003 (Combination vs. NoRx), p=0.005 (Combination vs. AOH1996 alone), and p=0.024 (Combination vs. CPT-11 alone).
In vivo tumor model. […] Tumor size and animal weight were measured weekly. […]

T1 sequence (P12004 whole entry): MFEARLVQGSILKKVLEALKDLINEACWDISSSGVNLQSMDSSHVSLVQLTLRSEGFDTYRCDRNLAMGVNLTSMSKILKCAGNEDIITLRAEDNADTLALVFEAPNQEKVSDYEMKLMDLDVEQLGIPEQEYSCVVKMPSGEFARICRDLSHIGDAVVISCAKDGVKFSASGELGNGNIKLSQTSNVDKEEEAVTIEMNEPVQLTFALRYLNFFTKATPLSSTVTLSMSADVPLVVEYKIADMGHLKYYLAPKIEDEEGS

In the case of `COc1cccc(Oc2ccccc2NC(=O)CNC(=O)c2cccc3ccccc23)c1` [AOH1996, N-(2-((2-(3-methoxyphenoxy)phenyl)amino)-2-oxoethyl)-1-naphthamide], the “shift of protein melting curves (ΔTm)” value (PCNA) is reported as at most 1.5 °C and the tumor burden (H82 xenograft tumors) is reported as “significantly reduced tumor burden”.
